Measured values taken from patent publication US7834024B2, “Compositions and methods for inhibition of the JAK pathway” (Rigel Pharmaceuticals, Inc., priority 2007, dated 2010).
Like-named read-outs stand apart in the source and are kept apart here.

Tested on: Ramos B-Cell Line Stimulated with IL-4 (JAK-1 and JAK-3 / Stat-6, CD23)
Test: Assay for Ramos B-Cell Line Stimulated with IL-4 (CD23 upregulation, FACS)
Format: cell-based
Conditions: human Ramos B cells, compound 1 hour, IL-4 50 units/mL for 20-24 hours, anti-CD23-PE FACS, read-out: Example 2 (IC50)
Excerpt: One means of assaying for such inhibition is detection of the effect of the 2,4-pyrimidinediamine compounds on the upregulation of downstream gene products. In the Ramos/IL4 assay, B-cells are stimulated with the cytokine Interleukin-4 (IL-4) leading to the activation of the JAK/Stat pathway through phosphorylation of the JAK family kinases, JAK1 and JAK3, which in turn phosphorylate and activate the transcription factor Stat-6. […] To study the effect of inhibitors (e.g., the 2,4-substituted pyrimindinediamine compounds described herein) on the JAK1 and JAK3 kinases, human Ramos B cells are stimulated with human IL-4. 20 to 24 hours post stimulation, cells are stained for upregulation of CD23 and analyzed using flow cytometry (FACS).
B-cells stimulated with cytokine Interleukin-4 (IL-4) activate the JAK/Stat pathway through phosphorylation of the JAK family kinases, JAK-1 and JAK-3, which in turn phosphorylate and activate the transcription factor Stat-6. […] To study the effect of inhibitors on the JAK family kinases, human Ramos B cells were stimulated with human IL-4.
Cells were maintained at a density of 3.5×10^5. The day before the experiment, Ramos B-cells were diluted to 3.5×10^5 cells/mL to ensure that they were in a logarithmic growth phase.
Cells were spun down and suspended in RPMI with 5% serum. 5×10^4 cells were used per point in a 96-well tissue culture plate. Cells were pre-incubated with compound or DMSO (Sigma-Aldrich, St. Louis, Mo., Cat No. D2650) vehicle control for 1 hour in a 37° C. incubator. Cells were then stimulated with IL-4 (Peprotech Inc., Rocky Hill, N.J., Cat No. 200-04) for a final concentration of 50 units/mL for 20-24 hours. […] Detection was performed using a BD LSR I System Flow Cytometer, purchased from Becton Dickinson Biosciences of San Jose, Calif.

Row | Compound | IC50 (Homo sapiens, Ramos) [nM] | IC50 [nM]
1 | Cc1noc(CCc2ccc(Nc3nc(Nc4ccc(CC#N)cc4)ncc3F)cc2)n1 [Compound I-120, N2-(4-Cyanomethylphenyl)-5-fluoro-N4-[4-(2-(3-methyl-1,2,4-oxadiazol-5-yl)ethyl)phenyl]-2,4-pyrimidinediamine] | 1950 | 
2 | N2-[2,3-Dihydro-1-(2-(N-morpholinyl)ethylaminocarbonyl)-1H-indol-6-yl]-N4-[4-(2-propynyloxy)phenyl]-2,4-pyrimidinediamine [VI-1] |  | 1010
3 | Cc1noc(COc2ccc(N(C)c3nc(Nc4cccc(C#N)c4)ncc3F)cc2)n1 [Compound I-17, N2-(3-Cyanophenyl)-5-fluoro-N4-methyl-N4-[4-((3-methyl-1,2,4-oxadiazol-5-yl)methyleneoxy)phenyl]-2,4-pyrimidinediamine] |  | 1780
4 | Cc1cc(Nc2nc(Nc3ccc(C(N)=O)cc3)ncc2F)ccc1OCC#N [Compound I-87, N2-(4-Aminocarbonylphenyl)-N4-(4-cyanomethoxy-3-methylphenyl)-5-fluoro-2,4-pyrimidinediamine] | 44.4 | 
5 | Cc1cc(Nc2nc(Nc3ccc(C(N)=O)cc3)ncc2F)ccc1OC(C)C#N (stereo not shown) [Compound I-92, N2-(4-Aminocarbonylphenyl)-N4-[4-(1-cyanoethoxy)-3-methylphenyl]-5-fluoro-2,4-pyrimidinediamine] | 127 | 
6 | CN1CCN(C(=O)c2ccc(Nc3ncc(F)c(Nc4cccc(OCC#N)c4)n3)cc2)CC1 [Compound I-53, N4-(3-Cyanomethoxyphenyl)-5-fluoro-N2-[4-((4-methylpiperazin-1-yl)carbonyl)phenyl]-2,4-pyrimidinediamine] |  | 1420
7 | CNC(=O)COc1cc(Nc2ncc(F)c(Nc3ccc4c(c3)NC(=O)CO4)n2)cc(OC)c1OC [II-22, N2-[4,5-Dimethoxy-3-(N-methylaminocarbonylmethyleneoxy)phenyl]-5-fluoro-N4-(3-oxo-2H,4H-benzo[1,4]oxazin-6-yl)-2,4-pyrimidinediamine] |  | 110
8 | COc1ccc(Nc2nc(Nc3ccc(C(=O)Nc4ccn(C)n4)cc3)ncc2F)cc1Cl [Compound I-2, N4-(3-Chloro-4-methoxyphenyl)-5-fluoro-N2-[4-((1-methyl-1H-pyrazol-3-yl)aminocarbonyl)phenyl]-2,4-pyrimidinediamine] | 317 | 
9 | C#CCOc1ccc(Nc2nc(Nc3ccc(C(N)=O)cc3)ncc2F)cc1 [Compound I-8, N2-(4-Aminocarbonylphenyl)-5-fluoro-N4-[4-(2-propynyloxy)phenyl]-2,4-pyrimidinediamine] | 118 | 
10 | Cc1nc(COc2ccc(Nc3nc(Nc4ccc(C(N)=O)cc4)ncc3F)cc2)no1 [Compound I-56, N2-(4-Aminocarbonylphenyl)-5-fluoro-N4-[4-((5-methyl-1,2,4-oxadiazol-3-yl)methoxy)phenyl]-2,4-pyrimidinediamine] | 91.4 | 
11 | Cc1noc(COc2ccc(Nc3nc(Nc4ccc(CC#N)cc4)ncc3F)cc2)n1 [Compound I-110, N2-(4-Cyanomethylphenyl)-5-fluoro-N4-[4-((3-methyl-1,2,4-oxadiazol-5-yl)methoxy)phenyl]-2,4-pyrimidinediamine] | 29.8 | 
12 | N#CCOc1ccc(Nc2ncc(F)c(Nc3ccc(OCC#N)c(Cl)c3)n2)cc1Cl [Compound I-107, N2,N4-Bis(3-chloro-4-cyanomethoxyphenyl)-5-fluoro-2,4-pyrimidinediamine] | 350 | 
13 | CNC(=O)COc1cccc(Nc2ncc(F)c(Nc3ccc4c(c3)N(Cc3ccc(OC)cc3)C(=O)C(C)S4)n2)c1 (racemic) [II-13, Racemic-5-fluoro-N2-[3-(N-methylaminocarbonylmethyleneoxy)phenyl]-N4-[2-methyl-3-oxo-4-(4-methoxybenzyl)-2H-benzo[1,4]thiazin-6-yl]-2,4-pyrimidinediamine] |  | 938
14 | CCN(CC)CCNC(=O)c1ccc(Nc2ncc(F)c(Nc3cccc(OCc4nc(C)no4)c3)n2)cc1 [Compound I-125, N2-[4-(2-(N,N-Diethylamino)ethylaminocarbonyl)phenyl]-5-fluoro-N4-[3-(3-methyl-1,2,4-oxadiazol-5-yl)methyleneoxyphenyl]-2,4-pyrimidinediamine] |  | 103
15 | Cc1noc(COc2ccc(Nc3nc(Nc4ccc(CC#N)cc4)ncc3F)c(C)c2)n1 [Compound I-115, N2-(4-Cyanomethylphenyl)-5-fluoro-N4-[2-methyl-4-((3-methyl-1,2,4-oxadiazol-5-yl)methoxy)phenyl]-2,4-pyrimidinediamine] | 258 | 
16 | CNC(=O)c1cc(Nc2ncc(F)c(Nc3ccc(OCC(N)=O)cc3)n2)ccc1N1CCN(C)CC1 [Compound I-39, N4-(4-Aminocarbonylmethoxyphenyl)-5-fluoro-N2-[3-methylaminocarbonyl-4-(4-methylpiperazin-1-yl)phenyl]-2,4-pyrimidinediamine] | 431 | 

Row | Compound | IC50 (Homo sapiens, Ramos) [nM] | IC50 [nM]
17 | Cc1noc(CCCc2ccc(Nc3nc(Nc4cccc(C#N)c4)ncc3F)cc2)n1 [Compound I-114, N2-(3-Cyanophenyl)-5-fluoro-N4-[4-(3-(3-methyl-1,2,4-oxadiazol-5-yl)propyl)phenyl]-2,4-pyrimidinediamine] | 1750 | 
18 | CCc1cc(Nc2ncc(F)c(Nc3ccc(OCC#N)cc3)n2)cc(C#N)c1Cl [Compound I-104, N2-(4-Chloro-3-cyano-5-ethylphenyl)-N4-(4-cyanomethoxyphenyl)-5-fluoro-2,4-pyrimidinediamine] | 1140 | 
19 | CC(C#N)Oc1ccc(Nc2nc(Nc3ccc(C(N)=O)cc3)ncc2F)cc1 (stereo not shown) [Compound I-81, N2-(4-Aminocarbonylphenyl)-N4-[4-(1-cyanoethoxy)phenyl]-5-fluoro-2,4-pyrimidinediamine] | 52.9 | 
20 | NC(=O)COc1cccc(Nc2nc(Nc3cccc(C(N)=O)c3)ncc2F)c1 [Compound I-33, N4-(3-Aminocarbonylmethoxyphenyl)-N2-(3-aminocarbonylphenyl)-5-fluoro-2,4-pyrimidinediamine] | 3050 | 
21 | Cc1cc(Nc2nc(Nc3ccc(C(N)=O)cc3)ncc2F)cc(C)c1OC(C)C#N (stereo not shown) [Compound I-95, N2-(4-Aminocarbonylphenyl)-N4-[4-(1-cyanoethoxy)-3,5-dimethylphenyl]-5-fluoro-2,4-pyrimidinediamine] | 103 | 
22 | CC(C#N)Oc1ccc(Nc2nc(Nc3ccc(C#N)cc3)ncc2F)cc1 (stereo not shown) [Compound I-79, N4-[4-(I-Cyanoethoxy)phenyl]-N2-(4-cyanophenyl)-5-fluoro-2,4-pyrimidinediamine] |  | 361
23 | N2-(3-Cyanomethoxy-4,5-dimethoxyphenyl)-N4-(2,2-dimethyl-3-oxo-4H-5-pyrido[1,4]oxazin-6-yl)-5-fluoro-2,4-pyrimidinediamine [II-16] |  | 213
24 | Cc1cnc(Nc2ccc(C(N)=O)cc2)nc1Nc1ccc2c(c1)CCC(=O)N2C [II-29, N2-(4-Aminocarbonylphenyl)-5-methyl-N4-(1-methyl-2-oxo-1,2,3,4-tetrahydroquinolin-6-yl)-2,4-pyrimidinediamine] | 609 | 
25 | CN1CCN(c2ccc(Nc3ncc(F)c(Nc4cccc(OCC(N)=O)c4)n3)cc2C(N)=O)CC1 [Compound I-50, N4-(3-Aminocarbonylmethoxyphenyl)-N2-[3-aminocarbonyl-4-(4-methylpiperazin-1-yl)phenyl]-5-fluoro-2,4-pyrimidinediamine] | 182 | 
26 | CC(C)(C#N)Oc1ccc(Nc2nc(Nc3ccc(CC#N)cc3)ncc2F)cc1 [Compound I-83, N4-[4-(1-Cyano-1-methylethoxy)phenyl]-N2-(4-cyanomethylphenyl)-5-fluoro-2,4-pyrimidinediamine] | 424 | 
27 | N#CCc1ccc(Nc2ncc(F)c(Nc3ccc(CC#N)cc3)n2)cc1 [Compound I-71, N2,N4-Bis(4-cyanomethylphenyl)-5-fluoro-2,4-pyrimidinediamine] | 195 | 
28 | CC(C#N)Oc1ccc(Nc2nc(Nc3cccc(C(N)=O)c3)ncc2F)cc1 (stereo not shown) [Compound I-82, N2-(3-Aminocarbonylphenyl)-N4-[4-(1-cyanoethoxy)phenyl]-5-fluoro-2,4-pyrimidinediamine] | 350 | 
29 | Cc1nc(COc2ccc(Nc3nc(Nc4cccc(C(N)=O)c4)ncc3F)cc2)no1 [Compound I-57, N2-(3-Aminocarbonylphenyl)-5-fluoro-N4-[4-((5-methyl-1,2,4-oxadiazol-3-yl)methoxy)phenyl]-2,4-pyrimidinediamine] | 292 | 
30 | CCc1cc(Nc2ncc(F)c(Nc3ccc(OCC#N)c(Cl)c3)n2)cc(C#N)c1Cl [Compound I-108, N2-(4-Chloro-3-cyano-5-ethylphenyl)-N4-(3-chloro-4-cyanomethoxyphenyl)-5-fluoro-2,4-pyrimidinediamine] | 1800 | 
31 | Cc1cc(Nc2nc(Nc3ccc(CC#N)cc3)ncc2F)cc(C)c1OCC#N [Compound I-89, N4-(4-Cyanomethoxy-3,5-dimethylphenyl)-N2-(4-cyanomethylphenyl)-5-fluoro-2,4-pyrimidinediamine] | 167 | 
